IC50 and EC50 data for 26 compounds are collected here from US11427561B2, “IRAK4 inhibiting agents” (BIOGEN MA INC., priority 2016, dated 2022).

Counter-ions that a name gives are not always drawn.

Test [1] deals with IRAK4 (Homo sapiens (Human), UniProt Q9NWZ3). The test is described as follows: IRAK-4 biochemical assay, AlphaScreen format (phosphorylation of a biotin labeled peptide). The settings on record: 1 nM IRAK4, 1.6 μM peptide, 1 mM ATP, 3.5 h at RT. Here is the method:
Biochemical Assay: The biochemical assay is in a AlphaScreen format. The kinase reaction is based on the IRAK-4 phosphorylation of a biotin labeled peptide. The phosphopeptide is incubated with anti-phosphothreonine antibody as well as streptavidin- and protein A-coated beads. Binding of the protein-A coated beads to the antibody and the streptavidin beads to the peptide, leads to an energy transfer from one bead to the other, ultimately producing a luminescent/fluorescent signal.
Generally, the kinase reaction is carried out at 1 nM IRAK4, 1.6 μM peptide, 1 mM ATP in reaction buffer 50 mM Hepes, 60 mM NaCl, 5 mM MgCl2, 0.25 mM MnCl2, 2 mM DTT, 0.01% BSA, 0.01% Tween-20) for 3.5 h at RT.
The compounds described herein were tested for in the above biochemical assay.

Test [2] has as its system A549 cells. Description: Cell-based assay: IL-6 ELISA quantification in A549 cells stimulated with human IL-1beta. As to conditions: 2 ng/ml human IL-1beta overnight. Here is the method:
Cell-based Assay: The cell-based assays is based on IL-6 ELISA quantification. Briefly, A549 cells are cultured in DMEM with 10% FBS medium. When cells reach 80% confluence they are trypsin treated and seeded 180 ul/well in 96-well plate at 2.5×10^4 cells/well. Then, 20 ul of compound serial dilutions (starting at 10 uM, 10 points) are added to the cell plate; incubate for 30 min at 37 C and stimulated with 2 ng/ml human IL-1beta 37 C, 5% CO2 overnight. The next day 100 ul of cell supernatant per well are analyzed on a Human IL-6 Quantikine ELISA kit from R&D Systems.
The compounds described herein were tested for in the above biochemical and cell-based assays.

IRAK4, sequence (Q9NWZ3 whole entry, species assumed): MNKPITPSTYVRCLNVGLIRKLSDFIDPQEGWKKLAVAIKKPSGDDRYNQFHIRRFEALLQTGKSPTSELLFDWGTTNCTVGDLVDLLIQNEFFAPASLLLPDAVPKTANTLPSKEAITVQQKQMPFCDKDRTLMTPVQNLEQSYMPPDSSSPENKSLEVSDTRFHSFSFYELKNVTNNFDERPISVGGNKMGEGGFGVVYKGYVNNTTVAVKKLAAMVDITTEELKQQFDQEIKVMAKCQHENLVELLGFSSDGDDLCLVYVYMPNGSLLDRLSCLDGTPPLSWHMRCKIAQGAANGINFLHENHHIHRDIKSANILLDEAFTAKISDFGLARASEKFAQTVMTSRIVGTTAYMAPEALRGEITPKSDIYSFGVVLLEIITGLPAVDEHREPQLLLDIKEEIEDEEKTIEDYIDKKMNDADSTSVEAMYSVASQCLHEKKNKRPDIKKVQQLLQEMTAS

The IC50 is the concentration at which inhibition is half-maximal. A low value points to greater potency in that assay. As usually defined, the EC50 is the concentration giving half of the maximal effect. Lower therefore signals higher potency in that assay. `COC1CC([C@H](N)c2cccc(-c3ccc4cnn(-c5cccc(C(F)F)n5)c4c3)n2)C1` (stereo partly drawn) [Compound 35h, (S)-(6-(1-(6-(difluoromethyl)pyridin-2-yl)-1H-indazol-6-yl)pyridin-2-yl)(3-methoxycyclobutyl)methanamine] registered an IC50 in test [1] not above 100 nM. In test [2] (Homo sapiens, A549, A549 cells), this compound displayed a 50% effective concentration (EC50) not above 1000 nM. For the compound `N[C@@H](c1cccc(-c2ccc3cnn(-c4cccc(CO)n4)c3c2)n1)[C@H]1C[C@@H](O)C1` [Compound 5, (cis)-3-((R)-amino(6-(1-(6-(hydroxymethyl)pyridin-2-yl)-1H-indazol-6-yl)pyridin-2-yl)methyl)cyclobutan-1-ol hydrochloride], the half-maximal inhibitory concentration (IC50) in test [1] was not above 100 nM. The EC50 in test [2] (Homo sapiens, A549, A549 cells) was not above 1000 nM. On the same counts, the results for `N[C@H](c1cncc(-c2ccc3cnn(-c4cccc(CO)n4)c3c2)n1)[C@H]1C[C@@H](O)C1` [Compound 17, cis-3-((S)-amino(6-(1-(6-(hydroxymethyl)pyridin-2-yl)-1H-indazol-6-yl)pyrazin-2-yl)methyl)cyclobutanol] are not above 100 nM and not above 1000 nM. On the same counts, the results for `N[C@H](c1cccc(-c2ccc3cnn(-c4cccc(CO)n4)c3c2)n1)C1CC(F)(F)C1` [Compound 26, (S)-(6-(6-(6-(amino(3,3-difluorocyclobutyl)methyl)pyridin-2-yl)-1H-indazol-1-yl)pyridin-2-yl)methanol] are not above 100 nM and not above 1000 nM. The compound `N[C@H](c1cccc(-c2ccc3cnn(-c4cccc(CO)n4)c3c2)n1)C1CC(CO)C1` (stereo partly drawn) [Compound 3, (S)-(6-(6-(6-(amino(3-(hydroxymethyl)cyclobutyl)methyl)pyridin-2-yl)-1H-indazol-1-yl)pyridin-2-yl)methanol] registered an EC50 in test [2] (A549 cells) not above 1000 nM. As for `CCc1cccc(-n2ncc3ccc(-c4cccc([C@@H](N)C5CC(O)C5)n4)cc32)n1` (stereo partly drawn) [Compound 35b, 3-((S)-amino(6-(1-(6-ethylpyridin-2-yl)-1H-indazol-6-yl)pyridin-2-yl)methyl)cyclobutan-1-ol], the IC50 in test [1] is not above 100 nM. The same compound had an EC50 in test [2] (Homo sapiens, A549, A549 cells) of 1000 to 10000 nM.

For `N[C@H](c1cccc(-c2ccc3cnn(-c4cccc(C(F)F)n4)c3c2)n1)C1CC(O)C1` (stereo partly drawn) [Compound 35a, 3-((S)-amino(6-(1-(6-(difluoromethyl)pyridin-2-yl)-1H-indazol-6-yl)pyridin-2-yl)methyl)cyclobutan-1-ol], in test [1], the IC50 is not above 100 nM. In test [2] (Homo sapiens, A549, A549 cells), the EC50 was not above 1000 nM. In turn, `CC1(O)CC([C@H](N)c2cccc(-c3ccc4cnn(-c5cccc(CF)n5)c4c3)n2)C1` (stereo partly drawn) [Compound 35i, 3-((S)-amino(6-(1-(6-(fluoromethyl)pyridin-2-yl)-1H-indazol-6-yl)pyridin-2-yl)methyl)-1-methylcyclobutan-1-ol] had an IC50 in test [1] of 100 to 1000 nM. In addition, the EC50 in test [2] (A549 cells) lay within 1000 to 10000 nM. On to `N[C@@H](c1cccc(-c2ccc3cnn(-c4cccc(CO)n4)c3c2)n1)C1CC(CO)C1` (stereo partly drawn) [Compound 2, (R)-(6-(6-(6-(amino(3-(hydroxymethyl)cyclobutyl)methyl)pyridin-2-yl)-1H-indazol-1-yl)pyridin-2-yl)methanol], for which the IC50 in test [1] is not above 100 nM. This compound also had a concentration giving a half-maximal response (EC50) in test [2] (Homo sapiens, A549, A549 cells) not above 1000 nM.

For the compound `NC(c1cccc(-c2ccc3cnn(-c4cccc(CO)n4)c3c2)n1)C1CCC(O)C1` (single isomer, unassigned) [Compound 21, 3-(amino(6-(1-(6-(hydroxymethyl)pyridin-2-yl)-1H-indazol-6-yl)pyridin-2-yl)methyl)cyclopentanol-A], the 50% inhibitory concentration (IC50) in test [1] is not above 100 nM. Moreover, in test [2] (Homo sapiens, A549, A549 cells), the EC50 is not above 1000 nM.

In the case of `N[C@@H](c1cccc(-c2ccc3cnn(-c4cccc(CO)n4)c3c2)n1)[C@H]1C[C@H](O)C1` [Compound 7, trans-3-((R)-amino(6-(1-(6-(hydroxymethyl)pyridin-2-yl)-1H-indazol-6-yl)pyridin-2-yl)methyl)cyclobutanol], the IC50 in test [1] was not above 100 nM. The EC50 in test [2] (Homo sapiens, A549, A549 cells) is not above 1000 nM. As for `N[C@@H](c1cccc(-c2ccc3cnn(-c4cccc(CO)n4)c3c2)n1)C1(F)CCC1` [Compound 35d, (S)-(6-(6-(6-(amino(1-fluorocyclobutyl)methyl)pyridin-2-yl)-1H-indazol-1-yl)pyridin-2-yl) methanol], in test [2] (Homo sapiens, A549, A549 cells), the EC50 is not above 1000 nM. `CC1(O)CC([C@H](N)c2cccc(-c3ccc4cnn(-c5cccc(C(F)F)n5)c4c3)n2)C1` (stereo partly drawn) [Compound 35g, 3-((S)-amino(6-(1-(6-(difluoromethyl)pyridin-2-yl)-1H-indazol-6-yl)pyridin-2-yl)methyl)-1-methylcyclobutan-1-ol] had an IC50 in test [1] not above 100 nM. This compound returned an EC50 in test [2] (Homo sapiens, A549, A549 cells) not above 1000 nM. On the same counts, the results for `CC(O)c1ccnc(-n2ncc3ccc(-c4cccc([C@@H](N)[C@H]5C[C@@H](O)C5)n4)cc32)n1` (stereo partly drawn) [Compound 25, (1R,3s)-3-((1S)-amino(6-(1-(4-(1-hydroxyethyl)pyrimidin-2-yl)-1H-indazol-6-yl)pyridin-2-yl)methyl)cyclobutanol] are not above 100 nM and 1000 to 10000 nM. On the same counts, the results for `N[C@H](c1cccc(-c2ccc3cnn(-c4cccc(C(F)F)n4)c3c2)n1)C1CC(F)(F)C1` [Compound 30, (S)-(3,3-difluorocyclobutyl)(6-(1-(6-(difluoromethyl)pyridin-2-yl)-1H-indazol-6-yl)pyridin-2-yl) methanamine] are not above 100 nM and not above 1000 nM.

`N[C@H](c1cccc(-c2ccc3cnn(-c4cccc(CO)n4)c3c2)n1)C1(F)CCC1` [Compound 32, (R)-(6-(6-(6-(amino(1-fluorocyclobutyl)methyl)pyridin-2-yl)-1H-indazol-1-yl)pyridin-2-yl)methanol] returned an IC50 in test [1] not above 100 nM.

Regarding `NC(c1cccc(-c2ccc3cnn(-c4cccc(CO)n4)c3c2)n1)C1CCC(O)C1` (single isomer, unassigned) [Compound 22, 3-(amino(6-(1-(6-(hydroxymethyl)pyridin-2-yl)-1H-indazol-6-yl)pyridin-2-yl)methyl)cyclopentanol-B], the IC50 in test [1] is not above 100 nM. For the same compound, the EC50 in test [2] (A549 cells) lay in the range of 1000 to 10000 nM. Compound `CCc1ccnc(-n2ncc3ccc(-c4cccc([C@@H](N)[C@H]5C[C@@H](O)C5)n4)cc32)n1` [Compound 11, (1R,3S)-3-((S)-amino(6-(1-(4-ethylpyrimidin-2-yl)-1H-indazol-6-yl)pyridin-2-yl)methyl)cyclobutanol] showed an IC50 in test [1] of 100 to 1000 nM. This compound also yielded an EC50 in test [2] (Homo sapiens, A549, A549 cells) not above 1000 nM. As to `CO[C@H]1C[C@H]([C@H](N)c2cccc(-c3ccc4cnn(-c5cccc(C(F)F)n5)c4c3)n2)C1` [Compound 35j, (S)-(6-(1-(6-(difluoromethyl)pyridin-2-yl)-1H-indazol-6-yl)pyridin-2-yl)((1R,3S)-3-methoxycyclobutyl)methanamine], in test [2] (Homo sapiens, A549, A549 cells), the EC50 is not above 1000 nM.

Consider `N#CC1CC([C@H](N)c2cccc(-c3ccc4cnn(-c5cccc(CF)n5)c4c3)n2)C1` (stereo partly drawn) [Compound 35l, (S)-3-(amino(6-(1-(6-(fluoromethyl)pyridin-2-yl)-1H-indazol-6-yl)pyridin-2-yl)methyl)cyclo butane-1-carbonitrile], for which, in test [2] (Homo sapiens, A549, A549 cells), the EC50 is not above 1000 nM. Consider `N#CC1(c2cccc(-n3ncc4ccc(-c5cccc([C@@H](N)[C@H]6C[C@@H](O)C6)n5)cc43)n2)CC1` [Compound 20, 1-(6-(6-(6-((S)-amino(cis-3-hydroxycyclobutyl)methyl)pyridin-2-yl)-1H-indazol-1-yl)pyridin-2-yl)cyclopropanecarbonitrile], for which the IC50 in test [1] was not above 100 nM. In test [2] (Homo sapiens, A549, A549 cells), `CC1([C@H](N)c2cccc(-c3ccc4cnn(-c5cccc(CF)n5)c4c3)n2)CCC1` [Compound 35k, (S)-(6-(1-(6-(fluoromethyl)pyridin-2-yl)-1H-indazol-6-yl)pyridin-2-yl)(1-methylcyclobutyl)methanamine] gave an EC50 of 1000 to 10000 nM.

Turning to `N[C@H](c1cncc(-c2ccc3cnn(-c4cccc(CF)n4)c3c2)n1)[C@H]1C[C@@H](O)C1` [Compound 18, cis-3-((S)-amino(6-(1-(6-(fluoromethyl)pyridin-2-yl)-1H-indazol-6-yl)pyrazin-2-yl)methyl)cyclobutanol], the IC50 in test [1] was 100 to 1000 nM. For the compound `N[C@H](c1cncc(-c2ccc3cnn(-c4cccc(C(F)(F)F)n4)c3c2)n1)[C@H]1C[C@@H](O)C1` [Compound 19, cis-3-((S)-amino(6-(1-(6-(trifluoromethyl)pyridin-2-yl)-1H-indazol-6-yl)pyrazin-2-yl)methyl)cyclobutanol], the IC50 in test [1] is not above 100 nM. Regarding `N[C@H](c1cccc(-c2ccc3cnn(-c4cccc(CO)n4)c3c2)n1)C1(F)CCC1` [Compound 35c, (R)-(6-(6-(6-(amino(1-fluorocyclobutyl)methyl)pyridin-2-yl)-1H-indazol-1-yl)pyridin-2-yl) methanol], the EC50 in test [2] (Homo sapiens, A549, A549 cells) was in the range of 1000 to 10000 nM. Turning to `N[C@@H](c1cccc(-c2ccc3cnn(-c4cccc(CO)n4)c3c2)n1)C1(F)CCC1` [Compound 31, (S)-(6-(6-(6-(amino(1-fluorocyclobutyl)methyl)pyridin-2-yl)-1H-indazol-1-yl)pyridin-2-yl)methanol], in test [1], the 50% inhibitory concentration (IC50) is not above 100 nM.
